Assay: Cytotoxicity against human HeLaS3 cells by WST1 assay
Assay type: functional, cell-based
Details: HeLa S3
CCC(C)CC(=O)O[C@@H]1OC=C(CO)[C@H]2C[C@H](OC(=O)/C=C/c3ccc(O)cc3)[C@](O)(CO)[C@@H]12 (stereo not given in full) [1-O-DEISOVAEROYL-1-O-3-METHYLVALEROYL-LUZONOID A] showed an IC50 of 7.4 µM. Work on O=c1[nH]cc(F)c(=O)[nH]1 [FLUOROURACIL] yielded an IC50 of 5.4 µM. CC(C)CC(=O)O[C@@H]1OC=C(CO)[C@H]2C[C@H](OC(=O)/C=C/c3ccc(O)cc3)[C@](O)(CO)[C@@H]12 [LUZONOID A] showed an IC50 of 2.89 µM. With CC(C)CC(=O)O[C@@H]1OC=C(CO)[C@H]2C[C@H](OC(=O)/C=C\c3ccc(O)cc3)[C@](O)(CO)[C@@H]12 [LUZONOID B] the IC50 was 3.11 µM. With CC(C)CC(=O)O[C@@H]1OC=C(CO)[C@H]2C[C@H](O)[C@](O)(COC(=O)/C=C/c3ccc(O)cc3)[C@@H]12 [LUZONOID C] the IC50 was 3.57 µM. Compound CC(C)CC(=O)O[C@@H]1OC=C(CO)[C@H]2C[C@H](O)[C@](O)(COC(=O)/C=C\c3ccc(O)cc3)[C@@H]12 [LUZONOID D] has an IC50 of 4.56 µM. With CC(C)CC(=O)O[C@@H]1OC=C(CO[C@@H]2O[C@H](CO)[C@@H](O)[C@H](O)[C@H]2O)[C@H]2C[C@H](OC(=O)/C=C/c3ccc(O)cc3)[C@](O)(CO)[C@@H]12 [LUZONOSIDE A] the IC50 was 3.39 µM. CC(C)CC(=O)O[C@@H]1OC=C(CO[C@@H]2O[C@H](CO)[C@@H](O)[C@H](O)[C@H]2O)[C@H]2C[C@H](OC(=O)/C=C\c3ccc(O)cc3)[C@](O)(CO)[C@@H]12 [LUZONOSIDE B] showed an IC50 of 4.67 µM. Work on COC(=O)C1=CO[C@@H](O[C@@H]2O[C@H](CO)[C@@H](O)[C@H](O)[C@H]2O)[C@@H]2[C@@H](COC(=O)/C=C/c3ccc(O)cc3)CC[C@H]12 [LUZONOSIDE C] yielded an IC50 of 100 µM. COC(=O)C1=CO[C@@H](O[C@@H]2O[C@H](CO)[C@@H](O)[C@H](O)[C@H]2O)[C@@H]2[C@@H](COC(=O)/C=C\c3ccc(O)cc3)CC[C@H]12 [LUZONOSIDE D] gave an IC50 of 100 µM.
